As usually defined, the IC50 is the midpoint of a concentration-inhibition curve. Higher therefore signals weaker potency. For orientation: Kd means the concentration at which binding is half-saturated.

Test [1] has as its target T1, LRRK2 (Homo sapiens, UniProt Q5S007).
T1 construct: purchased SelectScreen Services (Thermo Fisher Scientific)
Briefly: In vitro LRRK2 kinase inhibition assay (SelectScreen Adapta), with or without 10 µM FKBP12. The class given is biochemical.
Description: In vitro kinase inhibition assays were performed by SelectScreen Services (Thermo Fisher Scientific) using either Z’-LYTE (mTOR, Src, Csk, EGFR, HER2 and HGK), Adapta (LRRK2) or LanthaScreen (DDR2) assay format (standardized protocols can be accessed on the SelectScreen website: https://www.thermofisher.com/us/en/home/products-and-services/services/custom-services/screening-and-profiling-services/selectscreen-profiling-service/selectscreen-kinase-profiling-service.html. When indicated, recombinant FKBP12 protein was added to the assay mixture to a final concentration of 10 µM.

The target in test [2] is LRRK2 (Mus musculus, UniProt Q5S006). Briefly: Phospho-LRRK2 (S935) quantification by TR-FRET in RAW264.7 cells. As to conditions: for P-LRRK2(S935) in RAW264.7 cells: replicate raw data. (In general: TR-FRET usually uses a lanthanide donor and a delayed reading to cut background.)
Description: Phospho-LRRK2 (S935) was quantified in drug-treated cells using a Phospho-LRRK2 (Ser935) cellular kit (Cisbio) following the manufacturer’s instructions. […] Cells were treated with compounds at the indicated concentrations for 2 h. Medium was removed by aspiration and the cells were rinsed with ice-cold PBS (1 ml). Cells were lysed with 100 µl Cisbio 1X lysis buffer at 23 °C directly in plate for 30 min. […] Clarified lysate (16 µl) was dispensed into one well of a low-volume, round-bottom 384-well plate, and 4 µl LRRK2–phospho-LRRK2 (S935) antibody master mix (Cisbio) was added to each well. The plate was incubated at 23 °C for 4 h.
The TR-FRET signal was calculated as the ratio fluorescence intensity [read B]/[read A].
In test [3] the target is T2, FKBP12 (Homo sapiens, UniProt P62942).
T2 construct: His-tag (HRV 3C cleavable) (cleaved yes); made in house; host or cells: Escherichia coli BL21(DE3)
Briefly: Competition fluorescence polarization assay with FITC-rapamycin tracer. The class given is binding. Conditions: recombinant FKBP12, Extended Data Fig. 2; read-out: Kd (FKBP12). On the technique in general: In fluorescence polarisation assays a small probe gives low polarisation when free and higher when bound to something large.
Description: Compound binding affinity was determined using a competition fluorescence polarization assay. […] The assay buffer was 20 mM HEPES pH 7.5 and 0.01% Triton X-100. […] Data were fitted to a three-parameter sigmoidal curve to derive IC50 values. Ki of the compounds were calculated using a tool provided by S. Wang’s laboratory (http://www.umich.edu/~shaomengwanglab/software/calc_ki/index.html). Data were plotted in GraphPad Prism 9.0.

Values joined by “and” are separate entries in the source; they are usually repeats but may differ in a detail not shown here. Identical values can stand only once. Like-named read-outs stand apart in the source and are kept apart here.

LRRK2 (Mus musculus, UniProt Q5S006), sequence (Q5S006 whole entry): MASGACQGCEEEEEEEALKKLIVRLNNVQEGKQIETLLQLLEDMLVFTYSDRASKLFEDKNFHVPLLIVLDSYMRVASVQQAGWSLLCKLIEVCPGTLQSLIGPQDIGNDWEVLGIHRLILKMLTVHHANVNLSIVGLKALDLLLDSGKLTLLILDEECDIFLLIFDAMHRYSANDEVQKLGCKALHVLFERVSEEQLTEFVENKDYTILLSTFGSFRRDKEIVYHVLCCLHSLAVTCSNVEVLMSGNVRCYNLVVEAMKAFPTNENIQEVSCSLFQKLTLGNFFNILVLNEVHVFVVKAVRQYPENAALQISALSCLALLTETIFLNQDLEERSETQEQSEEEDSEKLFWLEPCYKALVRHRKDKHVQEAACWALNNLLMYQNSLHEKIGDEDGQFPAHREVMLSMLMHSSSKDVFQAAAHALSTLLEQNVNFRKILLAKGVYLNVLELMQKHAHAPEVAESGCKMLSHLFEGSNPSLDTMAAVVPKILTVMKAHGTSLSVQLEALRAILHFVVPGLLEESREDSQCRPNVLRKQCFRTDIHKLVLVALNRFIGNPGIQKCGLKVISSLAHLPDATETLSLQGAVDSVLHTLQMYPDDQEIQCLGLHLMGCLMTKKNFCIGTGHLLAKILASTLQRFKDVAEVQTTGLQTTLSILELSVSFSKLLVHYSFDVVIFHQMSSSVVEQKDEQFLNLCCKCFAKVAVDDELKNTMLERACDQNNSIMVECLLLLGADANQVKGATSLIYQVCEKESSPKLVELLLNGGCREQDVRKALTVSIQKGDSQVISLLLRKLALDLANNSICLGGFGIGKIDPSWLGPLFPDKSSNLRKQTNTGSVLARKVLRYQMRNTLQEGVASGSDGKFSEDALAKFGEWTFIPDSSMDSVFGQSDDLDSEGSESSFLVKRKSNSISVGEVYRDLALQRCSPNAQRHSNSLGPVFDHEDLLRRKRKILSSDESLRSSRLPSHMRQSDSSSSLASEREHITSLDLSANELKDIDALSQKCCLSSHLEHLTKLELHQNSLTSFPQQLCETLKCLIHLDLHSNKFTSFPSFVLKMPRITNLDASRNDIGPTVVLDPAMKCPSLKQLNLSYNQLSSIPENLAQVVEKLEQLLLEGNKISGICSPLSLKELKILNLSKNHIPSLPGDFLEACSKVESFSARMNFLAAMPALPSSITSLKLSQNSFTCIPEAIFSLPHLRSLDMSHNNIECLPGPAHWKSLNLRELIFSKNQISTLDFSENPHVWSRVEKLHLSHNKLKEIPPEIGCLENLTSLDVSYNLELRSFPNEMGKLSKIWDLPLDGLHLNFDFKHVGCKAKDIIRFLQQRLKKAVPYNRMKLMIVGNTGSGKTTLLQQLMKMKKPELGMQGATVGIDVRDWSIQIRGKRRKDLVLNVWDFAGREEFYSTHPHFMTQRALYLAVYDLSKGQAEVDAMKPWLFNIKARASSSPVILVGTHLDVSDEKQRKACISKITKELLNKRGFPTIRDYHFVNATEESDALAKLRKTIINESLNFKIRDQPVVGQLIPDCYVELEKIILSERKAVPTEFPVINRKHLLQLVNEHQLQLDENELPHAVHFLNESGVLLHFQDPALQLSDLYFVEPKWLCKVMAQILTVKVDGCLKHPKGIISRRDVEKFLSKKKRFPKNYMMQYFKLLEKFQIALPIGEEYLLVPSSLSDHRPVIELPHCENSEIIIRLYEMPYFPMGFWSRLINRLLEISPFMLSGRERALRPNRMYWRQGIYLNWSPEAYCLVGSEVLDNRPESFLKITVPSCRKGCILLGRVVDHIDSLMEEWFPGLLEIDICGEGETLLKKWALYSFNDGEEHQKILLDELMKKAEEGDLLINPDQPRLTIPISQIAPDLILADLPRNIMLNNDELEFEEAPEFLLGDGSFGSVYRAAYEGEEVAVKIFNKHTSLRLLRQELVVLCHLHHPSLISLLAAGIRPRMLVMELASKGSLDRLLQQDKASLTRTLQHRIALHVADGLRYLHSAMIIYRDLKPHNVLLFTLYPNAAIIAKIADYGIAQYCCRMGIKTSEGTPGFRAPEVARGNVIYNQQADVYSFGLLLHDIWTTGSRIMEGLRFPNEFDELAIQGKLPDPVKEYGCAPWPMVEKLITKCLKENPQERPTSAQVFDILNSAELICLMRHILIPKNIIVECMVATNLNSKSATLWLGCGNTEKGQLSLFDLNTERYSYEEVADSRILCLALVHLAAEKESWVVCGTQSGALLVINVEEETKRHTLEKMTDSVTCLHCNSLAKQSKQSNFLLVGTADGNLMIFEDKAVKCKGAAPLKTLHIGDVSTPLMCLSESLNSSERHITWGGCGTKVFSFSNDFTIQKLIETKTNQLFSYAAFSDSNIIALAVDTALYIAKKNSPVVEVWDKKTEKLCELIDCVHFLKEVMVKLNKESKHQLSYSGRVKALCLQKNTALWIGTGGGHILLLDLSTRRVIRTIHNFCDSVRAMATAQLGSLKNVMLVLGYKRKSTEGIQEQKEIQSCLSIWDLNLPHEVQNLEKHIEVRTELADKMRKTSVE
T1 sequence (Q5S007 whole entry): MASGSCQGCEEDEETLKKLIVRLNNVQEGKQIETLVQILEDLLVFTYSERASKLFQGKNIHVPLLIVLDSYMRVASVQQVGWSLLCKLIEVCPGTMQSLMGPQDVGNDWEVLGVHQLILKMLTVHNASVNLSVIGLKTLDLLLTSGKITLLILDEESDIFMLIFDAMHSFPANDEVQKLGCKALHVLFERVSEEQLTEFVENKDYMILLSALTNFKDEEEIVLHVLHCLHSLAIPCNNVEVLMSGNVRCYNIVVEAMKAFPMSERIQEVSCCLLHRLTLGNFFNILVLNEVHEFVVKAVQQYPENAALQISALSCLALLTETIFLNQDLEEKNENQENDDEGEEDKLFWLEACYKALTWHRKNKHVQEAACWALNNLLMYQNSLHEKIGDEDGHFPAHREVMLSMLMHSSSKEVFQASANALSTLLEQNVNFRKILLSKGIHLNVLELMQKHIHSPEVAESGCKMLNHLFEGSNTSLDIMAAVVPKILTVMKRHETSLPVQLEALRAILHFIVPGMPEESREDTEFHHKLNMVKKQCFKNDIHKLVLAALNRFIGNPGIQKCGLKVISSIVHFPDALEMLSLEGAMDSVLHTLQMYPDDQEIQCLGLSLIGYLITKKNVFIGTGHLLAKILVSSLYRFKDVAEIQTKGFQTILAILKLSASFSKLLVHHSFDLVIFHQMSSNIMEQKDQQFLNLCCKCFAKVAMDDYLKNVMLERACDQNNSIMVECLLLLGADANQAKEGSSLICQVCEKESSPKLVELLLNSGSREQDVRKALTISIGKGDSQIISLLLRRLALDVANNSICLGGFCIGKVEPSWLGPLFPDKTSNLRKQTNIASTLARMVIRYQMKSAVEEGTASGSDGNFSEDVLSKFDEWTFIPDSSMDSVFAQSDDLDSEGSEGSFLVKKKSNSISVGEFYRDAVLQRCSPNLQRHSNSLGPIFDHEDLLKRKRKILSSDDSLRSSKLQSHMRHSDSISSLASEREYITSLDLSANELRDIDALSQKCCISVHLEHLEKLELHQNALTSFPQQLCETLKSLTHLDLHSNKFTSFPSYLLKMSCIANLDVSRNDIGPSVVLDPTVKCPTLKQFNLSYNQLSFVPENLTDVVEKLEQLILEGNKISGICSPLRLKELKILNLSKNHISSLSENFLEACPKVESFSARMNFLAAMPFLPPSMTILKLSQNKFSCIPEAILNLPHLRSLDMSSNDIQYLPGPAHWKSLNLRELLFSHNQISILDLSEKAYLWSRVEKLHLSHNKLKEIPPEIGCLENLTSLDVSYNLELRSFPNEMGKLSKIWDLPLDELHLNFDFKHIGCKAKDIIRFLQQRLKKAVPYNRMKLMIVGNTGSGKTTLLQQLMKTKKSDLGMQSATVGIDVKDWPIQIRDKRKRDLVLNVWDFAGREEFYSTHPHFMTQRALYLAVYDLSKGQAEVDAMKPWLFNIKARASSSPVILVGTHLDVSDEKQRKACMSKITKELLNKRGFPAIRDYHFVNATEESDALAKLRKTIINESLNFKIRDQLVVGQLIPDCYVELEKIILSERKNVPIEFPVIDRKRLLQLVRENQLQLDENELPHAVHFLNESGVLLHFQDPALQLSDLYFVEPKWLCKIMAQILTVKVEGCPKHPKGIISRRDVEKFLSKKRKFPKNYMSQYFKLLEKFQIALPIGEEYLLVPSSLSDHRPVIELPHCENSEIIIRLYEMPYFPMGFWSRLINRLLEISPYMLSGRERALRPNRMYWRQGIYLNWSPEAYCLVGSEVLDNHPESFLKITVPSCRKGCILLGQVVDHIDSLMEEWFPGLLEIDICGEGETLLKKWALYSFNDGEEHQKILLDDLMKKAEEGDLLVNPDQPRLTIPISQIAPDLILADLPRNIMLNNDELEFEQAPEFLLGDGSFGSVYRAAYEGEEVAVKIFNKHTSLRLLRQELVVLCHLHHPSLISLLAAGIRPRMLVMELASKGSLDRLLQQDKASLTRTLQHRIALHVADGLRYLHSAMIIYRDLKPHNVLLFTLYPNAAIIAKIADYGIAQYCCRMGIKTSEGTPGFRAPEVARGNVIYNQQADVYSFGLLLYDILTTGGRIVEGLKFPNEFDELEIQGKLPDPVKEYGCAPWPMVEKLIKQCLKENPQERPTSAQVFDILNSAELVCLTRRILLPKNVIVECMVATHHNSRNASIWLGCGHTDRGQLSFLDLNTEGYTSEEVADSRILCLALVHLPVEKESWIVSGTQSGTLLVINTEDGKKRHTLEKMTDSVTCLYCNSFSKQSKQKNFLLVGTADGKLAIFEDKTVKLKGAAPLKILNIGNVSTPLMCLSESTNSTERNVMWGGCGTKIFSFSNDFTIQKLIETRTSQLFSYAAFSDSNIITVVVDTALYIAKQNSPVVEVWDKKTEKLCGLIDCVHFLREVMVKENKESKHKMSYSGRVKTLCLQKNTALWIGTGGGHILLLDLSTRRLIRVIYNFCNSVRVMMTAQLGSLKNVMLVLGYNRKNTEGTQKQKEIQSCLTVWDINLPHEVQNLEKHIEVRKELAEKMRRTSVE
T2 sequence (P62942 whole entry): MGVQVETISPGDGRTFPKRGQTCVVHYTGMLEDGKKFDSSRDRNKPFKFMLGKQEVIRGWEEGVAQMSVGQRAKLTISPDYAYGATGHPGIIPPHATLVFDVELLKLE

On to `CCNc1nc(Nc2cc(F)c(C(=O)N3CCOCC3)cc2OC)ncc1C(F)(F)F` [GNE7915], for which the “residual kinase activity (LRRK2)” value came to 96 in test [1] (0.495 nM drug, no FKBP12); 66 in test [1] (1.52 nM drug, + 10 µM FKBP12); 75 in test [1] (1.52 nM drug, no FKBP12); 39 in test [1] (4.57 nM drug, + 10 µM FKBP12); 41 in test [1] (4.57 nM drug, no FKBP12); 15 in test [1] (13.7 nM drug, + 10 µM FKBP12). For the same molecule, the “residual kinase activity (LRRK2)” value in test [1] (13.7 nM drug, no FKBP12) was 16; in test [1] (41.2 nM drug, + 10 µM FKBP12), 9; in test [1] (41.2 nM drug, no FKBP12), 10; in test [1] (123 nM drug, + 10 µM FKBP12) it was 6; in test [1] (123 nM drug, no FKBP12), 3; in test [1] (370 nM drug, + 10 µM FKBP12) it was 5. For the same molecule, the “residual kinase activity (LRRK2)” value in test [1] (370 nM drug, no FKBP12) is on record as 3; in test [1] (1110 nM drug, no FKBP12) it was 3; in test [1] (10000 nM drug, + 10 µM FKBP12), 3. Moreover, the remaining activity at 0.000495 µM in test [1] (read-out: residual kinase activity (LRRK2), 0.495 nM drug, + 10 µM FKBP12) is 84%; in test [1] (read-out: residual kinase activity (LRRK2), 0.495 nM drug, no FKBP12), 78%. The remaining activity at 0.00152 µM in test [1] (read-out: residual kinase activity (LRRK2), 1.52 nM drug, + 10 µM FKBP12) came to 68%; in test [1] (read-out: residual kinase activity (LRRK2), 1.52 nM drug, no FKBP12) it was 68%. The remaining activity at 0.00457 µM came out at 38% in test [1] (read-out: residual kinase activity (LRRK2), 4.57 nM drug, + 10 µM FKBP12) and 39% in test [1] (read-out: residual kinase activity (LRRK2), 4.57 nM drug, no FKBP12). In addition, the remaining activity at 0.0137 µM in test [1] (read-out: residual kinase activity (LRRK2), 13.7 nM drug, + 10 µM FKBP12) worked out at 17%; in test [1] (read-out: residual kinase activity (LRRK2), 13.7 nM drug, no FKBP12), 18%. Moreover, the remaining activity at 0.0412 µM in test [1] (read-out: residual kinase activity (LRRK2), 41.2 nM drug, + 10 µM FKBP12) stood at 8%; in test [1] (read-out: residual kinase activity (LRRK2), 41.2 nM drug, no FKBP12), 6%. Further, the remaining activity at 0.123 µM in test [1] (read-out: residual kinase activity (LRRK2), 123 nM drug, + 10 µM FKBP12) stood at 5%; in test [1] (read-out: residual kinase activity (LRRK2), 123 nM drug, no FKBP12), 4%. For the same molecule, the remaining activity at […] in test [1] (read-out: residual kinase activity (LRRK2), 370 nM drug, + 10 µM FKBP12) stood at 4%; in test [1] (read-out: residual kinase activity (LRRK2), 370 nM drug, no FKBP12), 5%. For the same molecule, the remaining activity at 1.11 µM was determined as 5% in test [1] (read-out: residual kinase activity (LRRK2), 1110 nM drug, + 10 µM FKBP12) and 4% in test [1] (read-out: residual kinase activity (LRRK2), 1110 nM drug, no FKBP12). The remaining activity at 3.33 µM in test [1] (read-out: residual kinase activity (LRRK2), 3330 nM drug, + 10 µM FKBP12) came out at 5%; in test [1] (read-out: residual kinase activity (LRRK2), 3330 nM drug, no FKBP12), 3%. Also, the remaining activity at 10 µM in test [1] (read-out: residual kinase activity (LRRK2), 10000 nM drug, + 10 µM FKBP12) was determined as 5%; in test [1] (read-out: residual kinase activity (LRRK2), 10000 nM drug, no FKBP12) it was 3%. In addition, the concentration for half-maximal inhibition (IC50) in test [1] (without added FKBP12) worked out at 3 nM; in test [2], 81 nM. Besides, the “P-LRRK2(S935) in RAW264.7 cells” value in test [2] (100 nM compound, +1 µM RapaBlock) is 61.9 and 64.8 and 53.2; in test [2] (100 nM compound, No RapaBlock), 56 and 55.7 and 48.1.
Take `CCNc1nc(Nc2cc(F)c(C(=O)N3CCOCC3)cc2OC)ncc1C(F)(F)F` [GNE-7915]: the “P-LRRK2(S935) in RAW264.7 cells” value in test [2] (Conc 0.457247 nM, 0 nM = 100) is 93.9 and 94 and 94.8; in test [2] (Conc 1.37174 nM, 0 nM = 100), 113.4 and 112.1 and 104.8; in test [2] (Conc 4.11523 nM, 0 nM = 100), 116.1 and 116.6 and 114.3; in test [2] (Conc 12.3457 nM, 0 nM = 100), 104.6 and 91.1 and 91.3; in test [2] (Conc 37.037 nM, 0 nM = 100), 75.2 and 70.5 and 70.4; in test [2] (Conc 111.111 nM, 0 nM = 100) it was 43.3 and 40.8 and 41. For the same molecule, the “P-LRRK2(S935) in RAW264.7 cells” value is 26.6 and 22.6 and 23.5 in test [2] (Conc 333.333 nM, 0 nM = 100); 17.7 and 14.2 and 15.7 in test [2] (Conc 1000 nM, 0 nM = 100).
Take `CCC(C)(C)C(=O)C(=O)N1CCCC[C@H]1C(=O)O[C@H](CCc1ccc(OC)c(OC)c1)c1cccc(NC(=O)C[N+](C)(C)C)c1` [Compound 01-025]: the Kd in test [3] amounted to 95 nM.
As to `CO[C@H]1C[C@@H](C)C/C(C)=C/[C@@H](CCCSCCN(C)C)C(=O)C[C@H](O)[C@@H](C)[C@@H](/C(C)=C/[C@@H]2CC[C@@H](O)[C@H](OC)C2)OC(=O)[C@@H]2CCCCN2C(=O)C(=O)[C@]2(O)O[C@H]1[C@@H](OC)C[C@H]2C` [Compound 05-013], the Kd in test [3] was 1.4 nM.

Source of the values: paper PMC9492542, “Brain-restricted mTOR inhibition with binary pharmacology” (Nature, 2022).
